# Data published in patent US11299512B2 (priority 2016, dated 2022).
# Where two headings read alike, the source gives them in different places.
# Tested on: THP1 luciferase reporter cells
# Assay: cells
# Format: cell-based
# [1] = 16 hours, read-out: THP1-ISG-Luc with PFO, EC50
# [2] = 16 hours, read-out: THP-ISG-Luc without PFO, EC50
# [3] = Homo sapiens, THP-1, 16 h, read-out: THP1-ISG-Luc with PFO, EC50
# [4] = Homo sapiens, THP-1, 16 h, read-out: THP-ISG-Luc without PFO, EC50
SMILES,EC50 [1] [nM],EC50 [2] [nM],EC50 [3] [nM],EC50 [4] [nM]
"Nc1nc2c(ncn2[C@@H]2O[C@@H]3COP(=O)(S)OC4C(O)[C@H](n5ncc6c(N)ncnc65)O[C@@H]4COP(=O)(S)OC2C3O)c(=O)[nH]1 (single isomer, unassigned) [EA4]",100 to 1000,< 30000,,
"Nc1nc2c(ncn2[C@@H]2O[C@@H]3COP(=O)(S)OC4C(O)[C@H](n5ncc6c(N)ncnc65)O[C@@H]4COP(=O)(S)OC2C3O)c(=O)[nH]1 (single isomer, unassigned) [EA5]",> 1000,> 100000,,
"Nc1nc2c(ccn2[C@@H]2O[C@@H]3COP(=O)(S)OC4C(O)[C@H](n5cnc6c(N)ncnc65)O[C@@H]4COP(=O)(S)OC2C3O)c(=O)[nH]1 (single isomer, unassigned) [EA6]",> 1000,> 100000,,
"Nc1nc2c(ccn2[C@@H]2O[C@@H]3COP(=O)(S)O[C@@H]4C(O)[C@H](n5cnc6c(N)ncnc65)O[C@@H]4COP(=O)(S)O[C@H]2C3O)c(=O)[nH]1 (single isomer, unassigned) [EA7]",,,100 to 1000,< 30000
"Nc1nc2c(ccn2[C@@H]2O[C@@H]3COP(=O)(S)OC4C(O)[C@H](n5cnc6c(N)ncnc65)O[C@@H]4COP(=O)(S)OC2C3O)c(=O)[nH]1 (single isomer, unassigned) [EA8]",100 to 1000,< 30000,,
"BP1(=O)OC[C@H]2O[C@@H](n3cnc4c(N)ncnc43)C(O)C2OP(=O)(O)OC[C@H]2O[C@@H](n3cnc4c(=O)[nH]c(N)nc43)C(O1)C2O (single isomer, unassigned) [EA9]",,,< 100,< 30000
"Nc1nc2c(ccn2[C@@H]2O[C@@H]3COP(=O)(O)OC4C(O)[C@H](n5ccc6c(N)ncnc65)O[C@@H]4COP(=O)(S)OC2C3O)c(=O)[nH]1 (single isomer, unassigned) [EB1]",> 1000,,,30000 to 100000
"Nc1nc2c(ccn2[C@@H]2O[C@@H]3COP(=O)(O)OC4C(O)[C@H](n5ccc6c(N)ncnc65)O[C@@H]4COP(=O)(S)OC2C3O)c(=O)[nH]1 (single isomer, unassigned) [EB2]",< 100,< 30000,,
"Nc1nc2c(ccn2[C@@H]2O[C@@H]3COP(=O)(O)OC4C(O)[C@H](n5cnc6c(N)ncnc65)O[C@@H]4COP(=O)(S)OC2C3O)c(=O)[nH]1 (single isomer, unassigned) [EB4]",,,> 1000,30000 to 100000
"Nc1nc2c(cnn2[C@@H]2O[C@@H]3COP(=O)(S)OC4C(O)[C@H](n5cnc6c(N)ncnc65)O[C@@H]4COP(=O)(S)OC2C3O)c(=O)[nH]1 (single isomer, unassigned) [EB7]",,,> 1000,> 100000
"Nc1nc2c(ncn2[C@@H]2O[C@@H]3COP(=O)(O)OC4C(O)[C@H](n5ccc6c(N)ncnc65)O[C@@H]4COP(=O)(S)OC2C3OCC(F)(F)F)c(=O)[nH]1 (single isomer, unassigned) [EC2]",,,100 to 1000,30000 to 100000
"Nc1nc2c(ccn2[C@@H]2O[C@@H]3COP(=O)(S)OC4C(O)[C@@H](COP(=O)(O)OC3C2O)O[C@H]4n2ccc3c(=O)[nH]c(N)nc32)c(=O)[nH]1 (single isomer, unassigned) [EC4]",> 1000,> 100000,,
"Nc1nc2c(ccn2[C@@H]2O[C@@H]3COP(=O)(S)OC4C(O)[C@@H](COP(=O)(O)OC3C2O)O[C@H]4n2ccc3c(=O)[nH]c(N)nc32)c(=O)[nH]1 (single isomer, unassigned) [EC5]",100 to 1000,30000 to 100000,,
"Nc1nc2c(ccn2[C@@H]2O[C@@H]3COP(=O)(S)OC4C(O)[C@@H](COP(=O)(O)OC3C2O)O[C@H]4n2ccc3c(N)ncnc32)c(=O)[nH]1 (single isomer, unassigned) [EC8]",,,> 1000,> 100000
"Nc1nc2c(ccn2[C@@H]2O[C@@H]3COP(=O)(S)OC4C(O)[C@@H](COP(=O)(O)OC3C2O)O[C@H]4n2ccc3c(N)ncnc32)c(=O)[nH]1 (single isomer, unassigned) [EC9]",> 1000,> 100000,,
"Nc1nc2c(ccn2[C@@H]2O[C@@H]3COP(=O)(O)OC4C(O)[C@@H](COP(=O)(S)OC2C3O)O[C@H]4n2cnc3c(N)ncnc32)c(=O)[nH]1 (single isomer, unassigned) [EC14]",> 1000,> 100000,,
"Nc1nc2c(ccn2[C@@H]2O[C@@H]3COP(=O)(O)OC4C(O)[C@@H](COP(=O)(S)OC2C3O)O[C@H]4n2cnc3c(N)ncnc32)c(=O)[nH]1 (single isomer, unassigned) [EC15]",100 to 1000,< 30000,,
"Nc1nc2c(ncn2[C@@H]2O[C@@H]3COP(=O)(O)OC4C[C@H](n5ccc6ccccc65)O[C@@H]4COP(=O)(S)OC2C3O)c(=O)[nH]1 (single isomer, unassigned) [EC17]",,,> 1000,> 100000
"Nc1nc2c(ncn2[C@@H]2O[C@@H]3COP(=O)(O)OC4C[C@H](n5ccc6ccccc65)O[C@@H]4COP(=O)(S)OC2C3O)c(=O)[nH]1 (single isomer, unassigned) [EC18]",> 1000,> 100000,,

SMILES,EC50 [1] [nM],EC50 [2] [nM],EC50 [3] [nM],EC50 [4] [nM]
"Nc1nc2c(ncn2[C@@H]2O[C@@H]3COP(=O)(O)OC4C[C@H](c5ccc6ccc7cccc8ccc5c6c78)O[C@@H]4COP(=O)(S)OC2C3O)c(=O)[nH]1 (single isomer, unassigned) [EC20]",,,> 1000,> 100000
"Nc1nc2c(ncn2[C@@H]2O[C@@H]3COP(=O)(O)OC4C[C@H](c5ccc6ccc7cccc8ccc5c6c78)O[C@@H]4COP(=O)(S)OC2C3O)c(=O)[nH]1 (single isomer, unassigned) [EC21]",> 1000,> 100000,,
"Nc1nc2c(ncn2[C@@H]2O[C@@H]3COP(=O)(S)OC4C(O)[C@H](n5cnc6c(N)ncnc65)O[C@@H]4COP(=O)(O)OC2C3O)c(=O)[nH]1 (single isomer, unassigned) [Example E6]",,,< 100,< 30000
"Nc1nc2c(ncn2[C@@H]2O[C@@H]3COP(=O)(S)OC4C(O)[C@H](n5cnc6c(N)ncnc65)O[C@@H]4COP(=O)(O)OC2C3O)c(=O)[nH]1 (single isomer, unassigned) [Example E7]",< 100,< 30000,,
"Nc1nc2c(ncn2[C@@H]2O[C@@H]3COP(=O)(O)OC4C(O)[C@H](n5cnc6c(N)ncnc65)O[C@@H]4COP(=O)(S)OC2C3O)c(=O)[nH]1 (single isomer, unassigned) [Example E8]",,> 100000,100 to 1000,
"Nc1nc2c(ncn2[C@@H]2O[C@@H]3COP(=O)(O)OC4C(O)[C@H](n5cnc6c(N)ncnc65)O[C@@H]4COP(=O)(S)OC2C3O)c(=O)[nH]1 (single isomer, unassigned) [Example E9]",< 100,< 30000,,
"Nc1nc2c(ncn2[C@@H]2O[C@@H]3COP(=O)(S)OC4C(O)[C@H](n5cnc6c(N)ncnc65)O[C@@H]4COP(=O)(S)OC2C3O)c(=O)[nH]1 (single isomer, unassigned) [Example E12]",,< 30000,< 100,
"Nc1nc2c(ncn2[C@@H]2O[C@@H]3COP(=O)(S)OC4C(O)[C@H](n5cnc6c(N)ncnc65)O[C@@H]4COP(=O)(S)OC2C3O)c(=O)[nH]1 (single isomer, unassigned) [Example E13]",100 to 1000,> 100000,,
"Nc1nc2c(ncn2[C@@H]2O[C@@H]3COP(=O)(S)OC4C(O)[C@H](n5cnc6c(N)ncnc65)O[C@@H]4COP(=O)(S)OC2C3O)c(=O)[nH]1 (single isomer, unassigned) [Example E14]",100 to 1000,> 100000,,
"Nc1nc2c(ncn2[C@@H]2O[C@@H]3COP(=O)(S)O[C@@H]4C(O)[C@H](n5ccc6c(N)ncnc65)O[C@@H]4COP(=O)(S)O[C@H]2C3O)c(=O)[nH]1 (single isomer, unassigned) [Example E15]",,,> 1000,> 100000
"Nc1nc2c(ncn2[C@@H]2O[C@@H]3COP(=O)(S)OC4C(O)[C@H](n5ccc6c(N)ncnc65)O[C@@H]4COP(=O)(S)OC2C3O)c(=O)[nH]1 (single isomer, unassigned) [Example E16]",< 100,< 30000,,
"Nc1nc2c(ncn2[C@@H]2O[C@@H]3COP(=O)(S)OC4C(O)[C@H](n5ccc6c(N)ncnc65)O[C@@H]4COP(=O)(S)OC2C3O)c(=O)[nH]1 (single isomer, unassigned) [Example E17]",> 1000,> 100000,,
"Nc1nc2c(ncn2[C@@H]2O[C@@H]3COP(=O)(S)OC4C(O)[C@H](n5ccc6c(N)ncnc65)O[C@@H]4COP(=O)(S)OC2C3O)c(=O)[nH]1 (single isomer, unassigned) [Example E18]",< 100,< 30000,,
"Nc1nc2c(ccn2[C@@H]2O[C@@H]3COP(=O)(S)OC4C(O)[C@H](n5ccc6c(N)ncnc65)O[C@@H]4COP(=O)(S)OC2C3O)c(=O)[nH]1 (single isomer, unassigned) [Example E20]",,,100 to 1000,< 30000
"Nc1nc2c(ccn2[C@@H]2O[C@@H]3COP(=O)(S)OC4C(O)[C@H](n5ccc6c(N)ncnc65)O[C@@H]4COP(=O)(S)OC2C3O)c(=O)[nH]1 (single isomer, unassigned) [Example E21]",100 to 1000,< 30000,,
"Nc1nc2c(ccn2[C@@H]2O[C@@H]3COP(=O)(S)OC4C(O)[C@H](n5ccc6c(N)ncnc65)O[C@@H]4COP(=O)(S)OC2C3O)c(=O)[nH]1 (single isomer, unassigned) [Example E22]",100 to 1000,< 30000,,
"BP1(=O)OC[C@H]2O[C@@H](n3cnc4c(N)ncnc43)C(O)[C@H]2OP(=O)(O)OC[C@H]2O[C@@H](n3cnc4c(=O)[nH]c(N)nc43)[C@@H](O1)C2O (single isomer, unassigned) [Example E25]",,,< 100,< 30000
Nc1nc2c(ccn2[C@@H]2O[C@@H]3COP(=O)(O)OC4C(O)[C@H](n5ccc6c(N)ncnc65)O[C@@H]4COP(=O)(O)OC2C3O)c(=O)[nH]1 (stereo in doubt) [EA1],,,100 to 1000,> 100000
Nc1nc2c(ncn2[C@@H]2O[C@@H]3COP(=O)(O)OC4C(O)[C@H](n5cnc6c(N)ncnc65)O[C@@H]4COP(=O)(O)OC2C3OCC(F)(F)F)c(=O)[nH]1 (stereo in doubt) [EA2],,,< 100,< 30000
